Assay results taken from patent US9029337B2, “Modulation of factor 7 expression” (Isis Pharmaceuticals, Inc., priority 2007, dated 2015).
Strand notation (5' to 3'): a small letter for the sugar, then the base; units joined by * are phosphorothioate-linked, units joined directly phosphodiester-linked; [ ] holds rarer units or linkages, { } end groups; capitals alone tell only the bases. e = 2'-O-(2-methoxyethyl) (MOE); [5mC] = 5-methylcytosine; d = 2'-deoxy (DNA)

These substances were tested on human Factor 7 mRNA (assay: Antisense inhibition of human Factor 7 mRNA in HepB3 cells, 50 nM antisense oligonucleotide, lipofectin). Conditions: Table 1, 50 nM, lipofectin, approximately 24 hours, relative to untreated control cells.
Format: cell-based
Outline: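 Cells plated at 4,000 per well were transfected and harvested after approximately 24 hours of treatment. Transcript levels, measured with primer probe set RTS 2927, were normalised to total RNA by RIBOGREEN®. Values are percent inhibition relative to untreated control cells.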

Substance	% Inhibition [%]
407621 (antisense eA*e[5mC]*eA*eA*e[5mC]*dA*dG*dG*dA*d[5mC]*d[5mC]*dT*dG*d[5mC]*d[5mC]*eA*eT*eG*eG*eA) [compound 407621]	62
403090 (antisense eA*eG*eT*e[5mC]*e[5mC]*dT*dG*dG*dG*dT*d[5mC]*dA*dT*d[5mC]*dA*eG*e[5mC]*e[5mC]*eG*eG) [compound 403090]	69
407940 (antisense eT*eG*eT*eG*eA*dA*dG*d[5mC]*dT*dG*dG*dG*dA*dA*dG*e[5mC]*eA*eG*eG*eT) [compound 407940]	62
407937 (antisense eG*eA*eA*eG*eG*dG*dA*dG*dA*dA*dA*dT*dA*d[5mC]*dA*eT*eT*eT*eG*eG) [compound 407937]	59
407645 (antisense eG*eA*eG*eA*eG*d[5mC]*dT*dA*dA*dA*d[5mC]*dA*dA*d[5mC]*d[5mC]*eG*e[5mC]*e[5mC]*eT*eT) [compound 407645]	65
407666 (antisense eT*e[5mC]*e[5mC]*e[5mC]*e[5mC]*dA*dG*dG*dA*d[5mC]*dA*dT*d[5mC]*dT*dG*eG*eA*eA*e[5mC]*eT) [compound 407666]	52
407647 (antisense eG*e[5mC]*eA*eG*e[5mC]*d[5mC]*dG*dT*dT*dT*dA*dT*dT*dG*dT*eG*eA*eA*eG*e[5mC]) [compound 407647]	83
407631 (antisense eG*eG*eG*e[5mC]*eA*d[5mC]*d[5mC]*dA*d[5mC]*dA*dT*dG*dG*dT*d[5mC]*eA*eG*eT*eG*eA) [compound 407631]	66
407630 (antisense e[5mC]*eA*e[5mC]*eA*eT*dG*dG*dT*d[5mC]*dA*dG*dT*dG*dA*dG*eG*eA*e[5mC]*e[5mC]*eA) [compound 407630]	29
407951 (antisense eA*eA*e[5mC]*eA*eG*d[5mC]*dT*dT*dT*dT*dG*dT*dT*dT*dT*eT*eA*eA*eA*eA) [compound 407951]	0
407961 (antisense eA*eA*eG*eT*eA*dG*dA*dT*dG*dA*dT*dG*d[5mC]*d[5mC]*dT*eG*eA*eG*eT*eG) [compound 407961]	34

Same assay, conditions: Table 6, 50 nM, lipofectin, approximately 24 hours

Substance	% Inhibition [%]
422128 (antisense eT*eT*eA*e[5mC]*eT*dG*dA*dG*d[5mC]*dG*d[5mC]*dG*dG*dA*dA*eG*eA*eA*eG*eG) [compound 422128]	27
422196 (antisense eT*eA*e[5mC]*dT*dG*dA*dG*d[5mC]*dG*d[5mC]*dG*dG*dA*dA*dG*dA*dA*eG*eG*eG) [compound 422196]	2
422275 (antisense eG*eT*dT*dA*d[5mC]*dT*dG*dA*dG*d[5mC]*dG*d[5mC]*dG*dG*dA*eA*eG*eA*eA*eG) [compound 422275]	42
422189 (antisense e[5mC]*eG*e[5mC]*dG*dG*dA*dA*dG*dA*dA*dG*dG*dG*dA*d[5mC]*dG*dG*eA*eA*eG) [compound 422189]	0
422119 (antisense eG*e[5mC]*eG*eG*eA*dA*dG*dA*dA*dG*dG*dG*dA*d[5mC]*dG*eG*eA*eA*eG*eG) [compound 422119]	39
422125 (antisense e[5mC]*eT*eG*eA*eG*d[5mC]*dG*d[5mC]*dG*dG*dA*dA*dG*dA*dA*eG*eG*eG*eA*e[5mC]) [compound 422125]	8

Same assay, conditions: gapmers targeted to nucleobases 4868 to 4899 of SEQ ID NO: 1, Table 8

Substance	% Inhibition of human Factor 7 mRNA levels [%]
422221 (antisense eG*e[5mC]*e[5mC]*d[5mC]*dG*dA*dG*dT*dT*d[5mC]*dT*dG*d[5mC]*dA*dG*dG*dA*eG*e[5mC]*eG) [compound 422221]	59
422298 (antisense eG*e[5mC]*d[5mC]*d[5mC]*dG*dA*dG*dT*dT*d[5mC]*dT*dG*d[5mC]*dA*dG*eG*eA*eG*e[5mC]*eG) [compound 422298]	62
422297 (antisense e[5mC]*e[5mC]*d[5mC]*dG*dA*dG*dT*dT*d[5mC]*dT*dG*d[5mC]*dA*dG*dG*eA*eG*e[5mC]*eG*eG) [compound 422297]	63

Same assay, conditions: lipofectin, 50 nM antisense oligonucleotide, approximately 24 hours, Factor 7 mRNA by real-time RT-PCR (RTS 2927), relative to untreated control

Substance	% Inhibition [%]
416494 (antisense e[5mC]*eA*eG*eA*eT*dT*dT*dA*dA*dA*d[5mC]*dT*dG*d[5mC]*dA*eG*eA*eT*eG*eA) [compound 416494]	0
416431 (antisense eA*eG*eG*eG*eA*dG*d[5mC]*d[5mC]*d[5mC]*dG*dG*d[5mC]*d[5mC]*dG*d[5mC]*eA*eG*e[5mC]*eT*e[5mC]) [compound 416431]	25
416476 (antisense eG*e[5mC]*eA*eG*eG*dT*dG*dG*dG*d[5mC]*dT*dT*dG*dG*d[5mC]*eT*eG*eA*eA*eG) [compound 416476]	58
416434 (antisense e[5mC]*eT*eG*eT*eA*dA*dG*dA*dA*dA*dT*d[5mC]*d[5mC]*dA*dG*eA*eA*e[5mC]*eA*eG) [compound 416434]	0
416471 (antisense eT*eG*eA*eG*e[5mC]*dT*dT*dT*dT*dG*d[5mC]*dA*dG*d[5mC]*d[5mC]*eA*e[5mC]*eT*e[5mC]*eG) [compound 416471]	62
416569 (antisense eG*e[5mC]*e[5mC]*eT*eG*dG*dT*dG*dT*dG*d[5mC]*dA*d[5mC]*dA*d[5mC]*eA*eT*eT*eG*eT) [compound 416569]	12
416444 (antisense eA*e[5mC]*eA*eG*eT*dT*d[5mC]*d[5mC]*dG*dG*d[5mC]*d[5mC]*d[5mC]*dT*d[5mC]*eG*eA*eA*eG*eG) [compound 416444]	24
416439 (antisense eG*eT*e[5mC]*e[5mC]*eT*dT*dG*d[5mC]*dA*dG*dG*dA*dG*d[5mC]*d[5mC]*e[5mC]*e[5mC]*e[5mC]*eA*eT) [compound 416439]	56
416458 (antisense eG*eG*e[5mC]*eG*eG*dA*dG*d[5mC]*dA*dG*d[5mC]*dG*d[5mC]*dG*dA*eT*eG*eT*e[5mC]*eG) [compound 416458]	29
416433 (antisense eA*eG*eA*eA*eA*dT*d[5mC]*d[5mC]*dA*dG*dA*dA*d[5mC]*dA*dG*e[5mC]*eT*eT*e[5mC]*eG) [compound 416433]	0
416519 (antisense eA*eA*eA*eT*eA*dT*dG*dG*dG*dA*d[5mC]*d[5mC]*d[5mC]*dA*dA*eA*eG*eT*eG*eG) [compound 416519]	9
416527 (antisense eG*eA*eG*e[5mC]*eT*dT*d[5mC]*d[5mC]*d[5mC]*dA*dA*dG*dT*dT*dG*eG*e[5mC]*eA*eG*eT) [compound 416527]	49

Same assay, conditions: oligonucleotides targeted to nucleobases 11830 to 11869 of SEQ ID NO: 1 (Table 9)

Substance	% Inhibition (human Factor 7 mRNA levels) [%]
422249 (antisense eT*eG*dG*d[5mC]*dT*dG*dA*dG*dG*dA*dG*dA*d[5mC]*dA*dA*eT*eG*eG*eT*e[5mC]) [compound 422249]	52
422100 (antisense eG*eA*eG*eG*eA*dG*dA*d[5mC]*dA*dA*dT*dG*dG*dT*d[5mC]*eA*eG*eG*eG*e[5mC]) [compound 422100]	59
422163 (antisense eA*eG*eA*d[5mC]*dA*dA*dT*dG*dG*dT*d[5mC]*dA*dG*dG*dG*d[5mC]*dT*eG*eG*eT) [compound 422163]	56
422240 (antisense eA*eG*dA*d[5mC]*dA*dA*dT*dG*dG*dT*d[5mC]*dA*dG*dG*dG*e[5mC]*eT*eG*eG*eT) [compound 422240]	66
422106 (antisense e[5mC]*eT*eG*eG*e[5mC]*dT*dG*dA*dG*dG*dA*dG*dA*d[5mC]*dA*eA*eT*eG*eG*eT) [compound 422106]	32
422239 (antisense eG*eA*d[5mC]*dA*dA*dT*dG*dG*dT*d[5mC]*dA*dG*dG*dG*d[5mC]*eT*eG*eG*eT*eT) [compound 422239]	67
422233 (antisense eG*eG*dT*d[5mC]*dA*dG*dG*dG*d[5mC]*dT*dG*dG*dT*dT*dT*eT*eG*eG*eA*eG) [compound 422233]	46

Same assay, conditions: oligonucleotides targeted to nucleobases 13760 to 13789 of SEQ ID NO: 1 (Table 10)

Substance	% Inhibition (human Factor 7 mRNA levels) [%]
422112 (antisense e[5mC]*e[5mC]*eA*e[5mC]*e[5mC]*d[5mC]*dG*d[5mC]*d[5mC]*dG*dG*d[5mC]*dT*d[5mC]*dT*eG*e[5mC]*eT*e[5mC]*eA) [compound 422112]	61
422261 (antisense eT*eG*d[5mC]*dG*d[5mC]*d[5mC]*dA*d[5mC]*d[5mC]*d[5mC]*dG*d[5mC]*d[5mC]*dG*dG*e[5mC]*eT*e[5mC]*eT*eG) [compound 422261]	47
422260 (antisense eG*e[5mC]*dG*d[5mC]*d[5mC]*dA*d[5mC]*d[5mC]*d[5mC]*dG*d[5mC]*d[5mC]*dG*dG*d[5mC]*eT*e[5mC]*eT*eG*e[5mC]) [compound 422260]	56
422253 (antisense e[5mC]*e[5mC]*dG*d[5mC]*d[5mC]*dG*dG*d[5mC]*dT*d[5mC]*dT*dG*d[5mC]*dT*d[5mC]*eA*eT*e[5mC]*e[5mC]*e[5mC]) [compound 422253]	61
422176 (antisense e[5mC]*e[5mC]*eG*d[5mC]*d[5mC]*dG*dG*d[5mC]*dT*d[5mC]*dT*dG*d[5mC]*dT*d[5mC]*dA*dT*e[5mC]*e[5mC]*e[5mC]) [compound 422176]	52

Same assay, conditions: oligonucleotides targeted to nucleobases 14707 to 14732 of SEQ ID NO: 1 (Table 11)

Substance	% Inhibition (human Factor 7 mRNA levels) [%]
422131 (antisense eA*eG*e[5mC]*e[5mC]*eT*dG*dA*dG*dG*d[5mC]*d[5mC]*dA*dG*d[5mC]*dA*eG*eA*eT*e[5mC]*eA) [compound 422131]	68
422280 (antisense e[5mC]*eA*dG*d[5mC]*d[5mC]*dT*dG*dA*dG*dG*d[5mC]*d[5mC]*dA*dG*d[5mC]*eA*eG*eA*eT*e[5mC]) [compound 422280]	52
